Data reported in EP0139005A1, “ANTITUMOR COMPOSITION, METHOD FOR TREATING TUMOR, AND USE OF THE COMPOSITION FOR TREATING TUMOR” (Yoshitomi Pharmaceutical Industries, Ltd., priority 1982, dated 1984).

Key:
L1210 leukemia [1] = test: L1210 leukemia implanted intraperitoneally, i.p. treatment, survival (Experimental Example 3); assay type: in vivo, female CDF1 mice; details: for Average Survival Time / Life-Prolongation Ratio (%): once daily for seven days; for effectiveness against L1210 leukemia: i.p., all doses of Table 4
Method: (§1) The life-prolongation ratio was calculated by the following scheme (the same scheme is applied to the subsequent experimental examples).
(§2) Life-prolongation Ratio [formula] T : Average survival days of the treated group
(§3) C : Average survival days of the control group
(§4) Animals survived over 30 days or longer were estimated as 30-day survivors, and the cases where T/C equals to or greater than 125% were regarded as effective.
A plurality of groups each consisting of five heads of female CDF1 mice (8 weeks old) were respectively implanted intraperitoneally with 10 cells of L1210 leukemia. After the next day of the implantation, Y-6430, ESCC and ESCC ethyl ester (hereinafter referred to ESCC-Et) in physiological saline were respectively administered once daily for seven days intraperitoneally, and the average survival days and life-prolongation ratios in each group were calculated.
(§5) All the test animals died of tumor within 30 days.

L1210 leukemia [2] = test: L1210 leukemia implanted intraperitoneally, oral or subcutaneous treatment, survival (Experimental Example 4); assay type: in vivo, female CDF1 mice; details: for Average Survival Time / Life-Prolongation Ratio (%): once daily for seven days
Method: as §1, §2, §3, §4
A plurality of groups each consisting of five female CDF1 mice (7-8 weeks old) were respectively implanted intraperitoneally with 10 cells of L1210 leukemia. After the next day of the implantation, the test animals were administered orally or subcutaneously once daily for seven days with Y-6430 or ESCC dissolved in physiological saline, and the average survival days and life-prolongation ratios in each group were calculated.
as §5

P388 leukemia = P388 leukemia implanted intraperitoneally, survival (Experimental Example 2); assay type: in vivo, female CDF1 mice; details: for 30-day Survivors / Average Survival Time / Life-Prolongation Ratio (%): once daily for seven days
Method: as §1, §2, §3, §4
A plurality of groups each consisting of five heads of female CDF1 mice (7-8 weeks old) were respectively implanted intraperitoneally with 10^6 cells of P388 leukemia. After 24 hours, Y-6430 and ESCC were respectively administered once daily for seven days, and average survival days, life-prolongation ratios and 30-day survivors in each group were calculated.

experimental tumors = details: L. Nemeth et al., Arzneim.-Forsh./Drug Res. 28(II), 1119-1123 (1978); cited from earlier work
leukemia = details: R.H. Adamson, Nature 217, 751-752 (1968); cited from earlier work

## CCNC(=O)SC[C@H](N)C(=O)OCC [ESCC-Et, ESCC ethyl ester]
L1210 leukemia [1]; 50 mg/kg/day i.p.
  Average Survival Time: 8.2 days
  Life-Prolongation Ratio (%): 103%
L1210 leukemia [1]; 100 mg/kg/day i.p.
  Average Survival Time: 8.4 days
  Life-Prolongation Ratio (%): 105%
L1210 leukemia [1]; 250 mg/kg/day i.p.
  Average Survival Time: 9.0 days
  Life-Prolongation Ratio (%): 113%
L1210 leukemia [1]; 500 mg/kg/day i.p.
  Average Survival Time: 9.0 days
  Life-Prolongation Ratio (%): 113%
L1210 leukemia [1]
  effectiveness against L1210 leukemia: ineffective

## CCNC(=O)SC[C@H](N)C(=O)O [ESCC, S-ethylcarbamoyl-L-cysteine, reference compound]
L1210 leukemia [2]; 100 mg/kg/day s.c.
  Average Survival Time: 8.0 days
  Life-Prolongation Ratio (%): 100%
L1210 leukemia [2]; 250 mg/kg/day s.c.
  Average Survival Time: 8.0 days
  Life-Prolongation Ratio (%): 100%
L1210 leukemia [2]; 500 mg/kg/day p.o.
  Average Survival Time: 8.0 days
  Life-Prolongation Ratio (%): 98%
L1210 leukemia [2]; 500 mg/kg/day s.c.
  Average Survival Time: 8.0 days
  Life-Prolongation Ratio (%): 100%
L1210 leukemia [2]; 1,000 mg/kg/day p.o.
  Average Survival Time: 9.2 days
  Life-Prolongation Ratio (%): 112%
L1210 leukemia [2]; 2,000 mg/kg/day p.o.
  Average Survival Time: 9.6 days
  Life-Prolongation Ratio (%): 117%
L1210 leukemia [2]; oral and subcutaneous administration
  effectiveness against L1210 leukemia: ineffective
L1210 leukemia [1]; 50 mg/kg/day i.p.
  Average Survival Time: 8.0 days
  Life-Prolongation Ratio (%): 108%
L1210 leukemia [1]; 100 mg/kg/day i.p.
  Average Survival Time: 8.0 days
  Life-Prolongation Ratio (%): 108%
L1210 leukemia [1]; 250 mg/kg/day i.p.
  Average Survival Time: 9.0 days
  Life-Prolongation Ratio (%): 122%
L1210 leukemia [1]; 500 mg/kg/day i.p.
  Average Survival Time: 9.0 days
  Life-Prolongation Ratio (%): 122%
L1210 leukemia [1]
  effectiveness against L1210 leukemia: ineffective
P388 leukemia; 100 mg/kg/day p.o.
  30-day Survivors: 0/5
  Average Survival Time: 10.2 days
  Life-Prolongation Ratio (%): 102%
P388 leukemia; 250 mg/kg/day p.o.
  30-day Survivors: 0/5
  Average Survival Time: 10.8 days
  Life-Prolongation Ratio (%): 108%
P388 leukemia; 500 mg/kg/day p.o.
  30-day Survivors: 0/5
  Average Survival Time: 10.8 days
  Life-Prolongation Ratio (%): 108%
P388 leukemia; 1,000 mg/kg/day p.o.
  30-day Survivors: 0/5
  Average Survival Time: 12.6 days
  Life-Prolongation Ratio (%): 126%
P388 leukemia; summary of Tables 2 and 3, T/C equal to or greater than 125% regarded as effective
  effectiveness against P388 leukemia: only slightly effective
Experimental tumors
  effect against experimental tumors: more excellent effect than S-carbamoyl-L-cysteine

## NC(=O)SC[C@H](N)C(=O)O [S-carbamoyl-L-cysteine]
leukemia
  effectiveness against leukemia in mice: effective
